Assay [1] deals with intracellular GCN2 (phosphorylation of the GCN2 substrate eIF2α) (Homo sapiens, UniProt Q9P2K8). The experiment in a line: GCN2 cellular inhibition assay (AlphaScreen SureFire P-eIF2α Ser51, borrelidin-treated U2OS cells). In kind it is cell-based. The note with it: biomarker assay, phosphorylated eIF2α Ser51 in borrelidin-treated U2OS cells. Summed up:
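U2OS cells, adhered overnight, received compounds in 4-fold serial dilutions from 40 μM final, then 10 μM borrelidin for 1 h at 37 °C. Lysates were read by AlphaScreen for phospho-eIF2α Ser51; percent inhibition was set against borrelidin-only wells.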
On the technique in general: Bead proximity is the source of the signal in Alpha formats.

In the next assay the target is GCN2 kinase (Homo sapiens, UniProt Q9P2K8). Description: GCN2 enzyme inhibition assay (Transcreener ADP2 fluorescence polarization). The note with it: 280 μM ATP. In kind it is biochemical. Summed up:
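FP detection of ADP (antibody plus Alexa633 tracer) after a 1 h, 25 °C kinase reaction. Enzyme 4 nM, ATP 280 μM, (RS)7 peptide 200 μM, Tris pH 7.5 buffer with MgCl2 and DTT. Percent inhibition fitted by non-linear tight-binding algorithm for IC50 and Ki(app).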
(In fluorescence polarisation assays a small probe gives low polarisation when free and higher when bound to something large.)

[2] abbreviates: compounds of Formula II, 4 nM GCN2 kinase.
Setting [3] is: Enzyme activity for compounds of Formula IV, Ki(app), 25° C.

Usually IC50 stands for the concentration needed to halve the response being measured.

Bounds are passed on as bounds.

Sequence of intracellular GCN2 (phosphorylation of the GCN2 substrate eIF2α) (Q9P2K8 whole entry): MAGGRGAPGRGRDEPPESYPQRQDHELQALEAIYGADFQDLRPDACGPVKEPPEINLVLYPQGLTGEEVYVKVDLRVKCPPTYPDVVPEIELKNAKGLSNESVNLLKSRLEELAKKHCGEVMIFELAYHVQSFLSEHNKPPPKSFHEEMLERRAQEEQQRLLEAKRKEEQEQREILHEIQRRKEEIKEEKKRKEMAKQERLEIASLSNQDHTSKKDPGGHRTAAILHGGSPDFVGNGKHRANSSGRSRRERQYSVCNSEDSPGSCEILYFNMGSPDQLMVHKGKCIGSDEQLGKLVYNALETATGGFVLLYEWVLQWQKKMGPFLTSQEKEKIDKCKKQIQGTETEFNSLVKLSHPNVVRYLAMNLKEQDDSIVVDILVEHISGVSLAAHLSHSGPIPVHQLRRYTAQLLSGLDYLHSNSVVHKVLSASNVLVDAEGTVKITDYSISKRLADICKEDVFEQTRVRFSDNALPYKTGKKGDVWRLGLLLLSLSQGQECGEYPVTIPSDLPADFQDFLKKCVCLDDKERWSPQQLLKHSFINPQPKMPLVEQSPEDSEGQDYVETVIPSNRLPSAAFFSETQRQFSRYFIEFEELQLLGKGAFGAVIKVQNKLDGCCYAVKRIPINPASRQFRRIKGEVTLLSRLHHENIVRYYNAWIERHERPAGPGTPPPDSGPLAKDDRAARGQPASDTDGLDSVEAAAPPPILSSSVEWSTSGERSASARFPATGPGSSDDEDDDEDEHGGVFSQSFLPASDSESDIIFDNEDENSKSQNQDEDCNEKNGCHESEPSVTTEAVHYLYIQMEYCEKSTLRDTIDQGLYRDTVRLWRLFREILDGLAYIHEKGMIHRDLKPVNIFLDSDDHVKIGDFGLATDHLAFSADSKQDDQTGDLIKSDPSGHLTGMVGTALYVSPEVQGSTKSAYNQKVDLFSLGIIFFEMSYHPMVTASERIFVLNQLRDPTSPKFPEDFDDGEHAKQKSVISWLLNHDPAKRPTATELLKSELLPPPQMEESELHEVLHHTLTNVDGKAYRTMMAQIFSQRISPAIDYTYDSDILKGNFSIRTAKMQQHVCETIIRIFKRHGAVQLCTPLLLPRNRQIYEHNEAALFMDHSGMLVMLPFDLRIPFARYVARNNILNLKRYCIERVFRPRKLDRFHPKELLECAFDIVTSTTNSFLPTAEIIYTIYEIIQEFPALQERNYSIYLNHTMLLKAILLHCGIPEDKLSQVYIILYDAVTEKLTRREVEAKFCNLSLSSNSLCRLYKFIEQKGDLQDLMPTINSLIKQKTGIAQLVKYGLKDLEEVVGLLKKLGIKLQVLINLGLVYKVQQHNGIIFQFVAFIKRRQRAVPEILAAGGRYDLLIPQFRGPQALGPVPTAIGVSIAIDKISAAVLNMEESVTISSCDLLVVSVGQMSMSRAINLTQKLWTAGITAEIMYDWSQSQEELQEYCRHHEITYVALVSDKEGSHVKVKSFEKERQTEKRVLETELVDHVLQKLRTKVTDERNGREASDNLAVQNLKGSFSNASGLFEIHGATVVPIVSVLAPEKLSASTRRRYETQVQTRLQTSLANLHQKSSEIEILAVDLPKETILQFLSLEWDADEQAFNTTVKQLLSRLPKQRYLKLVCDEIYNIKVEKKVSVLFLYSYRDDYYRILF
Sequence of GCN2 kinase (Q9P2K8 whole entry): as above

Consider `CS(C)(=O)=NC1CCCN(c2cc(-c3cnc4ccc(C(F)F)nn34)ncn2)C1` (stereo not drawn) [II-408, ((1-(6-(6-(Difluoromethyl)imidazo[1,2-b]pyridazin-3-yl)pyrimidin-4-yl)piperidin-3-yl)imino)dimethyl-λ^6-sulfanone], for which the IC50 in assay [1] (compounds of Formula II) was 500 to 5000 nM. Besides, at GCN2 kinase (setting [2]), the Ki was in the range of 10 to 1000 nM.

In turn, `CC(NS(C)(=O)=O)C1CN(c2cc(-c3cnc4ccc(C(F)F)nn34)ncn2)CCN1C` (stereo not drawn) [II-473, N-(1-(4-(6-(6-(Difluoromethyl)imidazo[1,2-b]pyridazin-3-yl)pyrimidin-4-yl)-1-methylpiperazin-2-yl)ethyl)methanesulfonamide] had an IC50 in assay [1] (compounds of Formula II) of more than 5000 nM. The molecule also gave a Ki on GCN2 kinase (setting [2]) of 10 to 1000 nM.

The molecule `CC1C(c2cn[nH]c2)CCCN1c1ccnc(-c2cnc3cnc(C(F)(F)F)cn23)n1` (single isomer, unassigned) [IV-420, 3-(4-(2-Methyl-3-(1H-pyrazol-4-yl)piperidin-1-yl)pyrimidin-2-yl)-6-(trifluoromethyl)imidazo[1,2-a]pyrazine] came in with an IC50 in assay [1] (compounds of Formula IV) of less than 500 nM. This molecule returned a Ki on GCN2 kinase (setting [3]) of less than 10 nM.

Consider `CCC1COC(CNS(C)(=O)=O)CN1c1cc(-c2cnc3ccc(C(F)F)nn23)ncn1` (stereo not drawn) [II-267, N-((4-(6-(6-(Difluoromethyl)imidazo[1,2-b]pyridazin-3-yl)pyrimidin-4-yl)-5-ethylmorpholin-2-yl)methyl)methanesulfonamide], for which the IC50 in assay [1] (compounds of Formula II) is 500 to 5000 nM. Besides, at GCN2 kinase (setting [2]), the Ki was 10 to 1000 nM.

The molecule `CS(=O)(=O)NCC1CN(c2cc(-c3cnc4ccc(C(F)F)nn34)ccn2)CCO1` (stereo not drawn) [II-149, N-((4-(4-(6-(Difluoromethyl)imidazo[1,2-b]pyridazin-3-yl)pyridin-2-yl)morpholin-2-yl)methyl)methanesulfonamide] yielded an IC50 in assay [1] (compounds of Formula II) of less than 500 nM. At GCN2 kinase (setting [2]), the Ki is less than 10 nM.

`OC[C@@H]1CN(c2cc(-c3cnc4ccc(C(F)F)nn34)ncn2)CCO1` [II-9, (S)-(4-(6-(6-(Difluoromethyl)imidazo[1,2-b]pyridazin-3-yl)pyrimidin-4-yl)morpholin-2-yl)methanol] registered an IC50 in assay [1] (compounds of Formula II) of 500 to 5000 nM. The molecule also yielded a Ki at GCN2 kinase (setting [2]) of 10 to 1000 nM.

As to `C[C@@H]1C[C@H](N=S(C)(C)=O)CN(c2ccnc(-c3cnc4cnc(C(F)F)cn34)n2)C1` [IV-772, (((3S,5R)-1-(2-(6-(difluoromethyl)imidazo[1,2-a]pyrazin-3-yl)pyrimidin-4-yl)-5-methylpiperidin-3-yl)imino)dimethyl-16-sulfanone], the 50% inhibitory concentration (IC50) in assay [1] (compounds of Formula IV) was in the range of 500 to 5000 nM; at GCN2 kinase (compounds of Formula IV, 4 nM GCN2 kinase), 10 to 1000 nM.

With `CS(=O)(=O)C1CCCN(c2cc(-c3cnc4ccc(C(F)F)nn34)ncn2)C1` (single isomer, unassigned) [II-529, 6-(Difluoromethyl)-3-(6-(3-(methylsulfonyl)piperidin-1-yl)pyrimidin-4-yl)imidazo[1,2-b]pyridazine], the IC50 in assay [1] (compounds of Formula II) lay within 500 to 5000 nM. At GCN2 kinase (setting [2]), the Ki lay within 10 to 1000 nM.

`CC(=O)N1CCN(c2cccc(-c3cnc4cnccn34)n2)CC1` [IV-2, 1-(4-(6-(Imidazo[1,2-a]pyrazin-3-yl)pyridin-2-yl)piperazin-1-yl)ethan-1-one] showed an IC50 in assay [1] (compounds of Formula IV) of more than 5000 nM. Also, the Ki at GCN2 kinase (setting [3]) lay within 100 to 1000 nM.

In assay [1] (compounds of Formula IV), `CC1C(c2cn[nH]c2)OCCN1c1nccc(-c2cnc3cnc(C(F)(F)F)cn23)n1` (stereo not drawn) [IV-418, 3-Methyl-2-(1H-pyrazol-4-yl)-4-(4-(6-(trifluoromethyl)imidazo[1,2-a]pyrazin-3-yl)pyrimidin-2-yl)morpholine] showed a concentration for half-maximal inhibition (IC50) of 500 to 5000 nM. On GCN2 kinase (setting [3]), this molecule had a Ki of 10 to 100 nM.

On to `CC(=O)N1CCN(c2cc(-c3cnc4ccc(OC(F)F)nn34)ccn2)CC1` [II-182, 1-(4-(4-(6-(Difluoromethoxy)imidazo[1,2-b]pyridazin-3-yl)pyridin-2-yl)piperazin-1-yl)ethanone], for which the IC50 in assay [1] (compounds of Formula II) was more than 5000 nM. Besides, on GCN2 kinase (setting [2]), the Ki lay within 10 to 1000 nM.

`CS(=O)(=O)N1CCC2(CCCN(c3cc(-c4cnc5ccc(C(F)F)nn45)ncn3)C2)C1` (stereo not drawn) [II-56, 7-(6-(6-(Difluoromethyl)imidazo[1,2-b]pyridazin-3-yl)pyrimidin-4-yl)-2-(methylsulfonyl)-2,7-diazaspiro[4.5]decane]: in assay [1] (compounds of Formula II), the IC50 is 500 to 5000 nM. The same molecule yielded a Ki on GCN2 kinase (setting [2]) of 10 to 1000 nM.

With `Fc1n[nH]cc1C1CCN(c2ccnc(-c3cnc4cnc(C(F)(F)F)cn34)n2)C1` (single isomer, unassigned) [IV-562, 3-(4-(3-(3-Fluoro-1H-pyrazol-4-yl)pyrrolidin-1-yl)pyrimidin-2-yl)-6-(trifluoromethyl)imidazo[1,2-a]pyrazine], the half-inhibitory concentration (IC50) in assay [1] (compounds of Formula IV) was less than 500 nM. This molecule also returned a Ki at GCN2 kinase (setting [3]) of less than 10 nM.

In the case of `C[C@@H]1CC[C@H](CNS(C)(=O)=O)CN1c1cc(-c2cnc3ccc(C(F)F)nn23)ncn1` [II-247, N-(((3S,6R)-1-(6-(6-(Difluoromethyl)imidazo[1,2-b]pyridazin-3-yl)pyrimidin-4-yl)-6-methylpiperidin-3-yl)methyl)methanesulfonamide], the IC50 in assay [1] (compounds of Formula II) is less than 500 nM. Moreover, the Ki on GCN2 kinase (setting [2]) was less than 10 nM.

In assay [1] (compounds of Formula II), `CS(=O)(=O)NCC1CN(c2cc(-c3cnc4ccc(C(F)F)nn34)ncn2)CC(C2CC2)O1` (stereo not drawn) [II-444, N-((6-Cyclopropyl-4-(6-(6-(difluoromethyl)imidazo[1,2-b]pyridazin-3-yl)pyrimidin-4-yl)morpholin-2-yl)methyl)methanesulfonamide] registered an IC50 of less than 500 nM. Also, the Ki on GCN2 kinase (setting [2]) is less than 10 nM.

The molecule `CC(NS(C)(=O)=O)C1CN(c2cc(-c3cnc4ccc(C(F)F)nn34)ncn2)CCO1` (stereo not drawn) [II-177, N-(1-(4-(6-(6-(Difluoromethyl)imidazo[1,2-b]pyridazin-3-yl)pyrimidin-4-yl)morpholin-2-yl)ethyl)methanesulfonamide] displayed an IC50 in assay [1] (compounds of Formula II) of less than 500 nM. The same molecule yielded a Ki on GCN2 kinase (setting [2]) of less than 10 nM.

With `CC1CN(c2cc(-c3cnc4ccc(C(F)F)nn34)ncn2)CC(CNS(C)(=O)=O)=C1F` (stereo not drawn) [II-537, N-((1-(6-(6-(Difluoromethyl)imidazo[1,2-b]pyridazin-3-yl)pyrimidin-4-yl)-4-fluoro-5-methyl-1,2,5,6-tetrahydropyridin-3-yl)methyl)methanesulfonamide], the IC50 in assay [1] (compounds of Formula II) is less than 500 nM. This molecule registered a Ki on GCN2 kinase (setting [2]) of less than 10 nM.

In assay [1] (compounds of Formula II), `CS(=O)(=O)NCC1CCCN(c2cc(-c3cnc4ccc(C(F)F)nn34)c(Cl)cn2)C1` (stereo not drawn) [II-730, N-((1-(5-Chloro-4-(6-(difluoromethyl)imidazo[1,2-b]pyridazin-3-yl)pyridin-2-yl)piperidin-3-yl)methyl)methanesulfonamide] showed an IC50 of 500 to 5000 nM. At GCN2 kinase (setting [2]), this molecule displayed a Ki of 10 to 1000 nM.

In assay [1] (compounds of Formula II), `COCC(=O)NCCC1CCCN(c2cc(-c3cnc4ccc(C(F)F)nn34)ncn2)C1` (stereo not drawn) [II-209, N-(2-(1-(6-(6-(Difluoromethyl)imidazo[1,2-b]pyridazin-3-yl)pyrimidin-4-yl)piperidin-3-yl)ethyl)-2-methoxyacetamide] had an IC50 of more than 5000 nM. The same molecule came in with a Ki on GCN2 kinase (setting [2]) of 10 to 1000 nM.

`FC(F)c1ccc2ncc(-c3cc(N4CCOCC4)ncn3)n2n1` [II-251, 4-(6-(6-(Difluoromethyl)imidazo[1,2-b]pyridazin-3-yl)pyrimidin-4-yl)morpholine] gave an IC50 in assay [1] (compounds of Formula II) of more than 5000 nM. This molecule also returned a Ki at GCN2 kinase (setting [2]) of 10 to 1000 nM.

For the molecule `CS(C)(=O)=NC1CCCN(c2cc(-c3cnc4ccc(C(F)F)nn34)ncn2)C1C(F)F` (stereo not drawn) [II-701, [2-(Difluoromethyl)-1-[6-[6-(difluoromethyl)imidazo[1,2-b]pyridazin-3-yl]pyrimidin-4-yl]-3-piperidyl]imino-dimethyl-λ^6-sulfanone], in assay [1] (compounds of Formula II), the IC50 was more than 5000 nM. The Ki on GCN2 kinase (setting [2]) was 10 to 1000 nM.

`CS(=O)(=O)N1C2CCC1CN(c1ccnc(-c3cnc4cnc(C(F)F)cn34)n1)C2` [IV-126, 6-(Difluoromethyl)-3-(4-(8-(methylsulfonyl)-3,8-diazabicyclo[3.2.1]octan-3-yl)pyrimidin-2-yl)imidazo[1,2-a]pyrazine] showed an IC50 in assay [1] (compounds of Formula IV) of more than 5000 nM. Moreover, the Ki on GCN2 kinase (setting [3]) lay within 100 to 1000 nM.

For `CC1CN(c2ccnc(-c3cnc4cnc(C(F)(F)F)cn34)n2)CC(c2cn[nH]c2Cl)N1` (single isomer, unassigned) [IV-651, 3-[4-[3-(5-Chloro-1H-pyrazol-4-yl)-5-methyl-piperazin-1-yl]pyrimidin-2-yl]-6-(trifluoromethyl)imidazo[1,2-a]pyrazine], in assay [1] (compounds of Formula IV), the IC50 was less than 500 nM. The same molecule gave a Ki on GCN2 kinase (setting [3]) of less than 10 nM.

In assay [1] (compounds of Formula II), `CC1(F)CCN(c2cc(-c3cnc4ccc(C(F)F)nn34)ncn2)CC1CNS(C)(=O)=O` (single isomer, unassigned) [II-389, N-((1-(6-(6-(Difluoromethyl)imidazo[1,2-b]pyridazin-3-yl)pyrimidin-4-yl)-4-fluoro-4-methylpiperidin-3-yl)methyl)methanesulfonamide] registered an IC50 of 500 to 5000 nM. The Ki at GCN2 kinase (setting [2]) was in the range of 10 to 1000 nM.

For `CS(=O)(=O)NCC1CN(c2cc(-c3cnc4ccc(Cl)nn34)ccn2)CCO1` (stereo not drawn) [II-184, N-((4-(4-(6-Chloroimidazo[1,2-b]pyridazin-3-yl)pyridin-2-yl)morpholin-2-yl)methyl)methanesulfonamide], in assay [1] (compounds of Formula II), the IC50 was in the range of 500 to 5000 nM. The molecule also had a Ki at GCN2 kinase (setting [2]) of 10 to 1000 nM.

For the molecule `Cc1nnc([C@@H]2CN(c3ccnc(-c4cnc5cnc(C(F)(F)F)cn45)n3)C[C@H](C)O2)o1` [IV-716], the IC50 in assay [1] (compounds of Formula IV) was more than 5000 nM. Also, the Ki at GCN2 kinase (setting [3]) was 100 to 1000 nM.

With `FC(F)c1cn2c(-c3nccc(N4CCc5ccccc5C4)n3)cnc2cn1` [IV-115, 2-(2-(6-(Difluoromethyl)imidazo[1,2-a]pyrazin-3-yl)pyrimidin-4-yl)-1,2,3,4-tetrahydroisoquinoline], the IC50 in assay [1] (compounds of Formula IV) is more than 5000 nM. Also, at GCN2 kinase (setting [3]), the Ki lay within 100 to 1000 nM.
